In article PMC10138714, “Evaluation of Some Safety Parameters of Dual Histamine H3 and Sigma-2 Receptor Ligands with Anti-Obesity Potential” (International Journal of Molecular Sciences, 2023):

What was measured:
[1] = tested on: mice; experiment: Locomotor activity in mice (activity cages, photobeam breaks); format: in vivo, male Albino Swiss (CD-1) mice; settings: single i.p. 30 mg/kg b.w., vs vehicle group
Experimental: (§1) Blood pressure measurement and ECG were performed on male Wistar rats weighing 200–220 g (six months old). Locomotor activity and chimney tests were performed on adult male Albino Swiss (CD-1) mice weighing 18–22 g ([…]). The animals were obtained from an accredited animal house at the Faculty of Pharmacy, Jagiellonian University Medical College, Krakow, Poland. The experimental groups consisted of 6–8 animals. The animals were housed in constant temperature (22–24 °C) and humidity (40–60%) facilities, exposed to 12:12 h light/dark cycles, and were maintained on a standard pellet diet with tap water available ad libitum. Rats and mice were housed in pairs or 8 animals per home cage, respectively.
Locomotor activity was individually recorded for each animal using specifically designed activity cages made of clear Perspex (40 cm × 40 cm × 31 cm, Activity Cage 7441, Ugo Basile, Italy). The cages were supplied with I.R. horizontal beam emitters connected to a counter that records the light-beam interruptions. The compounds suspensions were administered as i.p. injections 30 min before testing. Control animals received injections of vehicles. Each mouse was placed in a cage for a 30 min habituation period. After that time, the number of breaks in the photobeams was measured for 5 min, which is the same time as the observation period used in other tests.

[2] = tested on: normotensive rats; experiment: Blood pressure in anesthetized normotensive rats (carotid artery cannulation); format: in vivo, male Wistar rats
Experimental: as §1
Rats were anesthetized with thiopental (70 mg/kg) via i.p. injection. The left carotid artery was cannulated with polyethylene tubing filled with a heparin solution in saline to facilitate pressure measurements using a PowerLab Apparatus (ADInstruments, Sydney, Australia). After a 20 min stabilization period, the test compounds were administered i.p. at a dose of 10 mg/kg b.w. in a constant volume of 1 mL/kg b.w. Blood pressure was recorded immediately before administration and 5, 10, 15, 20, 30, 40, 50, and 60 min after the administration of the test compound [47].

[3] = target: σ1R; design: method as in PMID 34908391; settings: cited from earlier work; for σ1/σ2: ratio of Ki values
[4] = target: σ2R; design: method as in PMID 34908391; settings: cited from earlier work
[5] = tested on: rats; experiment: Heart rate and ECG intervals in rats; format: in vivo, male Wistar rats; settings: 10 mg/kg i.p.
Experimental: as §1
In vivo electrocardiographic measurements were performed using an ASPEL ASCARD B5 apparatus, standard lead II, and a paper speed of 50 mm/s. The study was carried out after a single administration of the test compounds (10 mg/kg i.p.). […] The following parameters were then calculated and analyzed: duration of PQ, QT, QRS, RR intervals, and heart rate.

[6] = tested on: mice; experiment: Motor coordination in the chimney test; format: in vivo, male Albino Swiss (CD-1) mice; settings: for % of Mice Impaired: chimney test, 30 min after injection, n = 8
Experimental: as §1
The effect of tested compounds on motor impairment were quantified with the chimney test of Boissier et al. (1960). The mice were trained before the test, and only the animals able to get out of the chimney within 1 min were used at the experimental stage. The selected mice were placed in a 25 cm-long and 2.5 cm in diameter […] tube, which was reversed so that the mice could leave it only by climbing up backward until they reached the other end. The test was performed 30 min after injection (i.p.) of the examined compounds. Motor impairment was indicated by the inability of the animals to climb up backwards in the transparent tube within 60 s.

[7] = target: H3R; design: method as in PMID 34908391; settings: cited from earlier work; for H3/σ1 / H3/σ2: ratio of Ki values
[8] = target: T1, human ERG potassium channel (Kv11.1) (Homo sapiens, UniProt Q12809); experiment: Whole-cell automated patch clamp (QPatch16X), inhibition of hERG currents; format: cell-based; settings: for IC50: CHO cells stably expressing human ERG, whole-cell, mean of three experiments, read-out: Mean IC50 ± SEM, inhibition of hERG currents; for Inhibition of hERG compared with verapamil: relative to reference compound verapamil
T1 construct: expressed in transfected cells
Experimental: Electrophysiology experiments were performed on a QPatch16X automatic patch clamp platform (Sophion Bioscience, Ballerup, Denmark). Chinese hamster ovary (CHO) cells stably expressing the human ERG potassium channel (Kv11.1) were cultured using standard procedures. On the day of the experiment, cells were collected from the culture flask using TrypLE Express solution (Life Technologies, Thermo Fisher Scientific, Carlsbad, California, United States) and resuspended in EX-CELL ACF CHO serum-free medium (Merck KGaA, Sigma-Aldrich, Darmstadt, Germany), supplemented with 25 mM HEPES, 100 U/mL penicillin/streptomycin, and 0.04 mg/mL soybean trypsin inhibitor (all components from Sigma Aldrich).
The cells were placed in the lidless microtube and located onboard the automated electrophysiology instrument, where they were automatically relocated to a built-in centrifuge.
Cells were transferred to pipetting wells of single-use 16-channel planar patch chip plates (QPlate 16X, Sophion Bioscience, Ballerup, Denmark) and gigaseals were formed upon application of a combined suction/voltage protocol in a standard protocol supplied by Sophion Bioscience for CHO cells. Once the whole-cell mode was obtained, the cells were kept in a holding potential of -90 mV between the programmed stimulation protocols.
Whole-cell potassium currents were measured in response to repeatedly executed voltage protocols constituted of the following steps: brief clamping to −50 mV (200 ms), subsequent depolarization to 20 mV for 4000 ms, and final repolarization to −50 mV when the outward tail current was measured for 4000 ms.
The average current peak values determined in the presence of particular concentrations of the compound tested were subjected to a sigmoidal dose–response curve fitting, where the bottom plateau parameter was constrained to 0. The IC50 values were then calculated from the obtained sigmoidal dose–response curves. Data were analyzed using QPatch Assay Software (v5.0, Sophion Bioscience, Ballerup, Denmark) and represent the mean of three experiments carried out on distinct cells.

[9] = tested on: rats fed a palatable diet; experiment: Plasma AlaT, AspaT, gGT and ALP activity after repeated administration in rats fed a palatable diet; format: in vivo; settings: 10 mg/kg b.w. i.p. repeated; for Plasma AspaT activity: relative to both control groups (standard or palatable feed); for Plasma ALP activity: vs control group fed standard feed; for Plasma gGT activity: vs palatable feed-fed control group
Experimental: Standard diet ( 8% fats, 67% carbohydrates, and 25% proteins) contained 100 g feed—280 kcal. Rats fed a palatable diet had access to a diet consisting of milk chocolate with nuts, cheese, salted peanuts, and 7% condensed milk and simultaneously to standard feed (Labofeed B, Morawski Manufacturer Feed, Kcynia, Poland) for 4 weeks. The feeding was not in any way forced, and rats decided themselves when, what, and how much to eat. A palatable diet contained 100 g of peanuts—612 kcal; 100 mL of condensed milk—131 kcal; 100 g of milk chocolate—529 kcal; and 100 g of cheese—325 kcal.
The study evaluating the activities of alanine aminotransferase (AlaT), aspartate aminotransferase (AspaT), gamma-glutamyl transpeptidases (gGT), and alkaline phosphatase (ALP) was carried out after completing the excessive eating model experiments described in our previous work. Compounds were administered for twenty-eight days at a dose of 10 mg/kg b.w./day. On the 31st day of the experiment, 20 min after i.p. administration of heparin (5000 units/rat) and thiopental (70 mg/kg b.w.), blood was collected from the left carotid artery and then centrifuged at 600× g (15 min, 4 °C) in order to obtain the plasma. To determine the activities of AlaT, AapaT, gGT, and ALP in the plasma samples, a standard enzymatic spectrophotometric test (Biomaxima S.A., Lublin, Poland) was used.

T1 sequence (Q12809 whole entry): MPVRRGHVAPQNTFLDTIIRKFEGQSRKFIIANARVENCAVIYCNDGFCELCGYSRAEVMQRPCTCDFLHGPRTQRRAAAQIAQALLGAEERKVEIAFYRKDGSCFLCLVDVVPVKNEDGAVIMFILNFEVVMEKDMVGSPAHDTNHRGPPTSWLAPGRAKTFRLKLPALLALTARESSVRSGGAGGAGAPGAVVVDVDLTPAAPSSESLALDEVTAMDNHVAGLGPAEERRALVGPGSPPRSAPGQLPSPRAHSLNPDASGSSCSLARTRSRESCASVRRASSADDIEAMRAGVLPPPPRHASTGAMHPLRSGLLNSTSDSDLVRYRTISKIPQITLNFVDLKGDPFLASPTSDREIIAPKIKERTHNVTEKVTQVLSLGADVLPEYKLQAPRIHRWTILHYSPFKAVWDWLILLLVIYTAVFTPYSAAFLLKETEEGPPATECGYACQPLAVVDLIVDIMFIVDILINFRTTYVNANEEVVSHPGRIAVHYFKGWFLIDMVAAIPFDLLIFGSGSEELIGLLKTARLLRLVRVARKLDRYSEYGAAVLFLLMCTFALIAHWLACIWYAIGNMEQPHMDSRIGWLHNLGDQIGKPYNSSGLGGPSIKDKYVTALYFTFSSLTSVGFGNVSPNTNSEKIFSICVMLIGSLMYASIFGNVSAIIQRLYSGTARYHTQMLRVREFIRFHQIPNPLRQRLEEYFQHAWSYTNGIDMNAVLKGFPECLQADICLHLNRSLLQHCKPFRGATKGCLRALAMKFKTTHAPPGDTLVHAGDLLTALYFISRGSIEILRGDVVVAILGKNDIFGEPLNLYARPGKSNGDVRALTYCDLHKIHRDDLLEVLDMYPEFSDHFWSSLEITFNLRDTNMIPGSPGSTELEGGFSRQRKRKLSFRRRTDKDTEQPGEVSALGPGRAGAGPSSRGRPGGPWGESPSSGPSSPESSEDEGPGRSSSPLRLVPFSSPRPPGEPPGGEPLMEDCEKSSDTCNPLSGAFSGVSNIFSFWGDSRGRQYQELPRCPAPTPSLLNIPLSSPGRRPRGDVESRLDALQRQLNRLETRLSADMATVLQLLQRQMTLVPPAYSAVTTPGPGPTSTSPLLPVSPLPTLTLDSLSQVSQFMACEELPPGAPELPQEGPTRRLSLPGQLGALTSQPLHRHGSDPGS

Row | SMILES | Locomotor activity [1] | Ki [3] [nM] | σ1/σ2 [3] | Ki [4] [nM] | Heart rate ([5]; time 0 min) [beats/min] | PQ ([5]; time 0 min) [ms] | QRS ([5]; time 0 min) [ms] | QT ([5]; time 0 min) [ms] | Heart rate ([5]; time 15 min) [beats/min] | PQ ([5]; time 15 min) [ms] | QRS ([5]; time 15 min) [ms] | QT ([5]; time 15 min) [ms] | Heart rate ([5]; time 30 min) [beats/min] | PQ ([5]; time 30 min) [ms] | QRS ([5]; time 30 min) [ms] | QT ([5]; time 30 min) [ms] | Heart rate ([5]; time 45 min) [beats/min] | PQ ([5]; time 45 min) [ms] | QRS ([5]; time 45 min) [ms] | QT ([5]; time 45 min) [ms] | further results
1 | c1ccc(-c2ccc(OCCCN3CCN(c4ccncc4)CC3)cc2)cc1 [KSK-61] | significant decrease | 638 | 5.90 | 108 | 373.2 ± 20.3 | 53 ± 1.6 | 20.8 ± 0.8 | 56.3 ± 4.1 | 369.5 ± 9.5 | 52.8 ± 1.5 | 21.5 ± 0.5 | 56.3 ± 2.2 | 380.2 ± 30.5 | 54.5 ± 3.5 | 21.8 ± 1.1 | 58.8 ± 2.2 | 349.5 ± 21.3 | 53.3 ± 1.8 | 21.8 ± 0.8 | 57.5 ± 4.3 | Effect on blood pressure ([2]; single i.p. 10 mg/kg b.w., vs vehicle (1% Tween 80)): did not affect blood pressure; Heart rate ([5]; time 60 min): 360.4 ± 20.3 beats/min; PQ ([5]; time 60 min): 53 ± 1.6 ms; QRS ([5]; time 60 min): 21.8 ± 0.4 ms; QT ([5]; time 60 min): 55 ± 5.0 ms; % of Mice Impaired ([6]; 10 mg/kg i.p.): 25%; % of Mice Impaired ([6]; 20 mg/kg i.p.): 12.5%; % of Mice Impaired ([6]; 30 mg/kg i.p.): 25%; Effect on motor coordination (chimney test) ([6]; mice, 10-30 mg/kg i.p., Fisher exact probability test): decreases the ability to exit the chimney at all doses tested in one or two mice per group; Ki [7]: 21.1 nM; H3/σ1 [7]: 0.03; H3/σ2 [7]: 0.20; IC50 [8]: 2660 ± 217 nM; Inhibition of hERG compared with verapamil [8]: about five times weaker; Plasma AspaT activity [9]: higher AspaT activity; Plasma ALP activity [9]: greater ALP activity; Plasma gGT activity [9]: statistically lower gGT activity
2 | O=C(c1ccccc1)c1ccc(OCCCN2CCN(c3ccncc3)CC2)cc1 [KSK-63] | significant decrease | 726 | 24.83 | 29.2 | 393.8 ± 34.8 | 57.5 ± 2.5 | 20.0 ± 0.0 | 63.3 ± 5.1 | 362.8 ± 38.0 | 55.0 ± 5.0 | 20.0 ± 0.0 | 64.4 ± 2.6 | 365.2 ± 34.8 | 58.75 ± 1.3 | 20.0 ± 0.0 | 65.3 ± 4.7 | 344.3 ± 30.8 | 55.0 ± 5.0 | 20 ± 0.0 | 62.1 ± 1.6 | Increase of systolic blood pressure ([2]; single i.p. 10 mg/kg b.w., 5, 10 and 20 min after administration): 16–22 mmHg; Heart rate ([5]; time 60 min): 344.3 ± 30.8 beats/min; PQ ([5]; time 60 min): 62.5 ± 2.1 ms; QRS ([5]; time 60 min): 20.0 ± 0.0 ms; QT ([5]; time 60 min): 65.2 ± 3.6 ms; % of Mice Impaired ([6]; 10 mg/kg i.p.): 0%; % of Mice Impaired ([6]; 20 mg/kg i.p.): 0%; % of Mice Impaired ([6]; 30 mg/kg i.p.): 0%; H3/σ1 [7]: 0.004; H3/σ2 [7]: 0.11; IC50 [8]: 570 ± 50 nM; Inhibition of hERG compared with verapamil [8]: close to the reference compound; Plasma AspaT activity [9]: higher AspaT activity; Plasma ALP activity [9]: greater ALP activity; Plasma gGT activity [9]: statistically lower gGT activity; Plasma AlaT activity ([9]; vs vehicle control fed palatable feed): lower
